Test results taken from patent publication US20250381324A1, “CD31 MIMETIC COATING FOR ENDOVASCULAR STENT” (INSERM (Institut National de la Santé et de la Recherche …, priority 2021, published 2025).
Bridge positions count the residues as written; N and C are the ends. Square brackets hold non-standard residues; d marks the D form. Ends that are not written are not given here. * marks the point of attachment. Lys(N3) = [N-]=[N+]=NCCCC[C@H](N)C(=O)O; Ttds = NCCCOCCOCCOCCCNC(=O)CCC(=O)*; hCys = N[C@@H](CCS)C(=O)O

Columns and labels:
[1] = tested on: endothelial cells; settings: immobilized peptide, in vitro; cited from earlier work
[2] = tested on: Primary Human Aortic Endothelial Cells (HAEC); experiment: Human aortic endothelial cells grown 48 h on bare or peptide-coated nitinol disks; F-actin / CD31 staining and image analysis; format: cell-based; settings: for CD31/Actin score: Example 2, FIG. 25, repeated experiments (SP547, SP548 only one measure); for CD31 expression (physiologic endothelial phenotype), Integrated Density / F-actin expression (cellular stress), Integrated Density: HAEC 48 h on coated nitinol disks; for CD31 expression (physiologic endothelial phenotype), Integrated Density: compared to other modified disks and bare controls, FIGS. 2, 4, 5; for F-actin expression (cellular stress), Integrated Density: compared to bare metal, FIGS. 2, 3, 5
Description: Nitinol disks are left untouched (bare metal) or coated with a domain 1, domain 2 or domain 1 and 2 CD31 analog peptide. The tested peptide is grafted to the nitinol disk following a polydopamine, DBCO-PEG4-amine and azide CD31 derivative peptide using a sequential dip-coating layering procedure. After this step, all the disks are incubated with Human aortic endothelial cells for 48 h. Disks are then rinsed and the cells are fixed in a formalin solution before staining. The staining is fulfilled using phalloidin coupled to AlexaFluor®488 dye (green fluorescence for Actin), DAPI is used for DNA staining and a domain 1 CD31 antibody coupled to APC is used for external Domain 1 staining. The cell adhesion and Actin/CD31 expression was evaluated by image analysis of the surface after staining.
In particular, as per FIG. 2 the bare or coated nitinol disks were placed at the bottom of culture wells. Primary Human Aortic Endothelial Cells (HAEC) were allowed to grow on the disks for a period of 48 h. The disks were thereafter rinsed with phosphate buffered saline, fixed in formalin, and processed for fluorescence microscopy. Disk-adherent cells were immersed in a solution comprising Hoechst 33342 (1 μg/ml, to stain the nuclei), phalloidin coupled to AlexaFluor®488 dye (0.5 μM, to stain F-actin fibers) and a monoclonal antibody directed against CD31 domain 1, coupled to allophycocyanin (to detect the presence and localization of intact CD31 at the cell surface) for 1 hour at 37° C., washed and mounted face down on glass bottom imaging chambers for imaging with an inverted fluorescence microscope.
Surface type is indicated on the Y axis, data are expressed as average±SD (N=6/surface type). Each dot corresponds to a specific surface modification. The F-actin expression relates the cellular stress of the cell in presence of the exogenous material.
In FIG. 4 the surface type is indicated on the Y axis. Each dot corresponds to a specific surface modification. Data are expressed as “Integrated Density” average±SD (N=6/surface type). CD31 expression relates the capacity of endothelial cells to adopt a physiologic phenotype while growing on a given substrate. An important variability is observed in terms of CD31 expression by HAEC according to the surface modification of the nitinol disks.
The “mirror” bars of FIG. 5 report the average Integrated Density of F-actin (left) and of CD31 (right) staining for each of the indicated (Y axis) type of peptide coated onto the disk surface and bare disks. Data are sorted (from the top to the bottom) according to the increase in the cellular stress (actin expression) of each coating. As shown on the figure, the degree of cellular stress (as detected by a high actin expression) and impaired endothelial phenotype (documented by a low CD31 expression) is evident on HAEC grown onto bare metal disks.
The data shown in FIG. 6 are expressed as the ratio between CD31 and F-actin expression.
The effect of different peptides, belonging to the different groups, were tested in batches following the same protocol as in FIG. 6. Different peptides from each group were tested in batches and the effect of individual peptides was repeatedly assessed in separate experiments. Data from all experiments were obtained by computer-assisted analysis of images of the disk side covered with endothelial cells, captured in the blue, green and red channel of an inverted fluorescence microscope. The functional score of the peptides belonging to the different groups was calculated by multiplying the number of cells (as detected by the number of blue, Dapi+ nuclei) for the integrated density of CD31 expression (red signal provided by the binding of a mouse anti-human CD31 monoclonal antibody, clone 9G11, conjugated allophycocyanin) and their product being divided for the integrated density of the F-actin polymerization (Phalloidin coupled to a green fluorochrome). […]

Substance	CD31/Actin score [2]	F-actin expression (cellular stress), Integrated Density [2]	further results
KWPALFVR [P8RI]			blood element reaction [1]: reduces the blood element reaction
[Ac-K(N3)-(Ttds)4-PRVTLDKKEAIQGGIVRVNSSVPEEK-Ttds-K^# (CH2CO)-CONH2]-[QHQMLFYhC^#DDVLFYNISSMK-CONH2] (chain 1 {Ac-Lys(N3)-Ttds-Ttds-Ttds-Ttds}-PRVTLDKKEAIQGGIVRVNSSVPEEK-{Ttds-K(CH2CO)-NH2}; chain 2 QHQMLFY[hCys]DDVLFYNISSMK-NH2; also: thioether at chain B 8 to a chain's C-terminus) [SP1383]	significantly higher than those obtained by the bare metal disks or by disks coated with PDA alone		
Ac-K(N3)-(Ttds)4-PRhCTLDKKEAIQGGIVRVNhCSVPEEK-CONH2 ({Ac-Lys(N3)-Ttds-Ttds-Ttds-Ttds}-PR[hCys]TLDKKEAIQGGIVRVN[hCys]SVPEEK-NH2; disulfide 3-20) [SP1380]			CD31 expression (physiologic endothelial phenotype), Integrated Density [2]: evident positive effect in terms of CD31 expression
RDQNFVILEFP-PEG4-K(N3)-NH2 [SP1070]	significantly higher than those obtained by the bare metal disks or by disks coated with PDA alone	does not show an influence on the cellular stress compared to the bare metal	
hCHQMLFYKDDVLFYNISShCK-Ttds-Ttds-Ttds-Ttds-K(N3)-CONH2 ([hCys]HQMLFYKDDVLFYNISS[hCys]K-{Ttds-Ttds-Ttds-Ttds-Lys(N3)-NH2}; cysteine pairing not given here) [SP1374]	significantly higher than those obtained by the bare metal disks or by disks coated with PDA alone	low cellular stress (low actin expression)	CD31 expression (physiologic endothelial phenotype), Integrated Density ([2]; listed as 1374): evident positive effect in terms of CD31 expression; CD31 expression (physiologic endothelial phenotype), Integrated Density ([2]; listed as SP 1374): consistent functional endothelial phenotype (high CD31 expression)
